Laboratory results published in EP1854806A1, “Thioglycosides as pharmaceutically active agents” (MPG Max-Planck-Gesellschaft zur Förderung der …, priority 2006, dated 2007).
Where two headings read alike, the source gives them in different places.

Tests used:
Format in all cases: cell-based
[1] = target: T1, human SGLT1 (Homo sapiens, UniProt P13866); experiment: Inhibition of sodium-dependent D-glucose transport, [14C]AMG-uptake; conditions: for Ki: apparent inhibitory constant, Dixon plot; for inhibitory effect, hSGLT1 compared with hSGLT2: [14C]AMG-uptake, 10µM, n=16, p<0.001, result in words
T1 construct: expressed in transfected cells; host or cells: CHO (Chinese hamster ovary) cells, stably transfected
T1 sequence (P13866 1-664): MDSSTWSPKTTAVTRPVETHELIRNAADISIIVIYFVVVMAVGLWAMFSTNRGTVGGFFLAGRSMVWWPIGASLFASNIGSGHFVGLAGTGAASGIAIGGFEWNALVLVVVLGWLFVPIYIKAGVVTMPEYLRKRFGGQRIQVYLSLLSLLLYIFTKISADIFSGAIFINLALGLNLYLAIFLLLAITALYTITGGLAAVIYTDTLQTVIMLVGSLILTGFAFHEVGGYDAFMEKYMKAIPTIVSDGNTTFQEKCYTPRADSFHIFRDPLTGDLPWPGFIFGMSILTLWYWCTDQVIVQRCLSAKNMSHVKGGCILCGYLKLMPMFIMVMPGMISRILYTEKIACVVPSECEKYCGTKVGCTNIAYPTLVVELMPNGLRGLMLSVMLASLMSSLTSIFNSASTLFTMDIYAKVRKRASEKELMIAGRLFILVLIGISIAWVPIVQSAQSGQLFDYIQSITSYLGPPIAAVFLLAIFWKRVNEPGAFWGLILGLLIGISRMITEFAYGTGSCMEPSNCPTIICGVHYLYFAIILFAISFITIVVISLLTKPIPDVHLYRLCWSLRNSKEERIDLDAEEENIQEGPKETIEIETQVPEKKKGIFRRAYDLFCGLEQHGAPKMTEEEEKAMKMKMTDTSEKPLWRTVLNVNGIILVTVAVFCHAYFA
Method: (§1) Stable transfected Chinese hamster ovary (CHO) cells that express human SGLT1 or human SGLT2 were seeded at a concentration of […] and maintained in culture for 2 days to allow the cells to form a confluent monolayer culture. For transport studies cells were seeded in 96-well microtiter scintiplates (PerkinElmer, Weisbaden, German). For fluorescence resonance energy transfer (FRET) analysis cells were seeded in flat-bottom, poly-D-lysine black-wall, clear bottom, 96-well plates (Becton Dickinson; Heidelberg, Germany).
(§2) Sodium-dependent D-glucose transport was determined by means of α-methyl [^14C]D-glucopyranoside ([^14C]AMG, spec. Radioactivity 300 mCi/mmol) purchased from NEN (Bad Homburg, Germany). For the purpose of this study, Krebs-Ringer-Henseleit (KRH) solution containing 120 mM NaCl, 4.7 mM KCI, 1.2 mM MgCl2, 2.2 mM CaCl2, 10 mM Hepes (pH 7.4 with Tris) was used to assess sodium-dependent D-glucose transport. For sodium free conditions, KRH solution containing 120 mM N-methyl-glucamine (NMG) instead of NaCl (Na^+) was used to assess sodium-independent D-glucose transport. All chemicals were purchased from Sigma (Deisenhof, Germany).
(§3) Briefly, cells were rinsed three times with 200 µl KRH-Na^+ or KRH-NMG. Then, 100 µl per well of transport buffer containing KRH-NA^+ or KRH-NMG plus [^14C]AMG (0.1 µCi/µl) were added and incubated for 1 hour. […] Then, the cells were solubilized by adding 100 µl of ATPlite substrate solution (PerkinElmer, Boston, USA) and luminescence ATP detection was assessed using a MicroBeta Trilux (PerkinElmer). A standard curve was used to determine the amount of ATP as mg of protein. After 24 hours the microtiter plate was taken for scintillation counting of radioactive [^14C]AMG-uptake using a MicroBeta Trilux (PerkinElmer). Subsequently, the mean counts per minute (cpm) were calculated and converted to […] (pmol). The obtained radioactive counts were expressed as pmol/mg/hour. Sodium-dependent [14C]AMG-uptake was calculated by subtracting uptake under sodium-free conditions from the uptake obtained in the presence of sodium.
(§4) The inhibitory effect on SGLT transport was also analyzed by IC50 values. Dixon plot analysis was used for both estimation of the inhibition constant (Ki) and for identification of the mechanism of enzyme inhibition. Ki was determined by the point of intersection of two different substrate concentrations. Plots of the reciprocal of rate of metabolite formation (1/Rate) versus inhibitor concentration at each substrate concentration were prepared.

[2] = target: T2, human SGLT2 (Homo sapiens, UniProt P31639); experiment: as above; conditions: hSGLT2; for Ki: apparent inhibitory constant, Dixon plot
T2 construct: expressed in transfected cells; host or cells: CHO (Chinese hamster ovary) cells, stably transfected
T2 sequence (P31639 1-672): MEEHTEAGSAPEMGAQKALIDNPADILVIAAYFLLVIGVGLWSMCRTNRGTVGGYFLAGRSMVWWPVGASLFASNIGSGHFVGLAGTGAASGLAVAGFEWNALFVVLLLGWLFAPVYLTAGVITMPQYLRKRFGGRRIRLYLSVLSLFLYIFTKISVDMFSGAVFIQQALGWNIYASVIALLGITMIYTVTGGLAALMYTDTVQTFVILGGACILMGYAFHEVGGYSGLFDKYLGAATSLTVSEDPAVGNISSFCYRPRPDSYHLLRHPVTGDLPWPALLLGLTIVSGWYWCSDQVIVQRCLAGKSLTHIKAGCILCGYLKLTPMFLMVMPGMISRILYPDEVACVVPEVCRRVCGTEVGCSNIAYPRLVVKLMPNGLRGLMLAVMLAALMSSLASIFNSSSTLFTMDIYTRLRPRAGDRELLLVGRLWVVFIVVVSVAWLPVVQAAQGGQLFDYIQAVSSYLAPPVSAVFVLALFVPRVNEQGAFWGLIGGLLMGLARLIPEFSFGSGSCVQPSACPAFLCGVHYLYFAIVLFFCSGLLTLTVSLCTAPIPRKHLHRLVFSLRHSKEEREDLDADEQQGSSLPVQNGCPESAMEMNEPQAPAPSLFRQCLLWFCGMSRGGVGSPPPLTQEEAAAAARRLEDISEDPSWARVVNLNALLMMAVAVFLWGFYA
Method: as §1, §2, §3, §4

[3] = target: T1, human SGLT1; experiment: SGLT activity (membrane translocation) by fluorescence resonance energy transfer (FRET); conditions: for transport through hSGLT1 (FRET): result in words; for fluorescence signal ratios: hSGLT1 in CHO cells, 10 µm thioglucoside, normalized to non-transfected CHO cells, ratio higher than 1 = transported, n=16
Method: as §1
(§5) SGLT activity, as indicated by membrane translocation, was assessed using fluorescence resonance energy transfer (FRET). Cells were incubated for 48 hours ar 37°C in a 5% CO2 atmosphere in growth medium. Cells were washed with 0.2 ml Dulbecco's phosphate-buffered saline (Invitrogen, Karlsruhe, Germany) and then incubated with 0.1 ml of a solution containing 5 µm CC2-DMPE and 0.02% pluronic acid in PBS. After incubation in the dark for 30 min at 25°C, cells were washed twice with 0.2 ml PBS. Afterwards, cells were incubated in the dark at 25°C for 30 minutes with 0.1 ml of a solution containing […] DiSBAC2(3). A t the end of the incubation period 1 mM of each thioglucoside was added and excited by 390 nm. Fluorescence emission was recorded at 460 and 580 nm. After a 20 second baseline reading, 0.1 ml of PBS containing 10 µM of each compound was added, and the fluorescence was calculated as the ratio F/F0 = [(A460/A580)/(I460/I580)] where A and I represent the reading after or before addition of each thioglucoside, respectively. For I, the readings form 2-5 seconds were averaged; and for A, readings from 3 seconds after the signal that had reached a plateau level (usually within 2-5 seconds) were also averaged. FRET values were expressed as relative fluorescence units (RFU).
(§6) The activity of the sodium-dependent D-glucose cotransport system was studied by changes in membrane potential induced by each of the eight thioglucosides (see Table 1) (10 µm). FRET values were normalized using the fluorescence signal obtained from non-transfected CHO cells.

[4] = target: T2, human SGLT2; experiment: as above; conditions: for transport through hSGLT2 (FRET): result in words; for fluorescence ratios: hSGLT2 in CHO cells, 10 µm thioglucoside, normalized to non-transfected CHO cells, ratio higher than 1 = transported, n=16
Method: as §1, §5, §6

Ki ([1]; hSGLT1, read-out: Ki) [µM]	IC50 ([1]; hSGLT1, read-out: IC50) [µM]	Compound	IC50 [1] [µM]	Ki ([1]; Ki, hSGLT1) [µM]	inhibitory effect, hSGLT1 compared with hSGLT2 [1]	inhibition at 10 µM ([1]; read-out: [14C]AMG-uptake, % inhibition) [%]	IC50 [2] [µM]	Ki [2] [µM]	transport through hSGLT1 (FRET) [3]	transport through hSGLT2 (FRET) [4]	fluorescence ratios [4]	fluorescence signal ratios [3]	inhibition at 10 µM ([2]; 10µM, n=16) [%]
		Cc1ccccc1S[C@@H]1O[C@H](CO)[C@@H](O)[C@H](O)[C@H]1O [Thioglucoside 4, o-Tolyl-1'-thio-β-D-glucopyranoside]	30	0.28	stronger for hSGLT1	> 70	18	132	significantly transported	significantly transported	1.63		
		OCc1ccccc1S[C@@H]1O[C@H](CO)[C@H](O)[C@H](O)[C@H]1O [Thioglucoside 6, 2-Hydroxymethyl-phenyl-1'-thio-β-D-galactopyranoside]	120	140			15	0.01			1.32		
		OC[C@H]1O[C@@H](Sc2ccccc2)[C@H](O)[C@@H](O)[C@@H]1O [Thioglucoside 3, Phenyl-1'-thio-β-D-glucopyranoside]	4	0.08	stronger for hSGLT1		16	135	significantly transported	significantly transported	1.21	1.15	
0.1	35	C/C(=C\CC/C(C)=C/CS[C@@H]1O[C@H](CO)[C@@H](O)[C@H](O)[C@H]1O)CO [Thioglucoside 1, 8-Hydroxygeranol-1'-thio-β-D-glucopyranoside]			stronger for hSGLT1		12	0.03	not transported	not transported			
		OCc1ccccc1S[C@@H]1O[C@H](CO)[C@@H](O)[C@H](O)[C@H]1O [Thioglucoside 2, 2-Hydroxymethyl-phenyl-1'-thio-β-D-glucopyranoside]	41	383	stronger for hSGLT1		9	0.01	not transported	not transported			
		O=C(CCc1ccc(O)cc1)c1c(O)cc(O)cc1O[C@@H]1O[C@H](CO)[C@@H](O)[C@H](O)[C@H]1O [phlorizin, reference compound]								not transported			
		Cc1ccc(S[C@@H]2O[C@H](CO)[C@@H](O)[C@H](O)[C@H]2O)cc1 [Thioglucoside 7, p-Tolyl-1'-thio-β-D-glucopyranoside]	52	23			32	175	significantly transported	significantly transported	4.22	2.64	> 70
		Cc1cccc(S[C@@H]2O[C@H](CO)[C@@H](O)[C@H](O)[C@H]2O)c1 [Thioglucoside 8, m-Tolyl-1'-thio-β-D-glucopyranoside]	40	0.17			11	0.02	not transported	not transported			
		OCc1cccc(S[C@@H]2O[C@H](CO)[C@@H](O)[C@H](O)[C@H]2O)c1 [Thioglucoside 5, 3-Hydroxymethyl-phenyl-1'-thio-β-D-glucopyranoside]	47	0.12			12	0.02				1.01	
